Reference: patent publication US20250306032A1, “METHODS FOR IDENTIFYING REACTIVE FUNCTIONAL CYSTEINES IN NUCLEAR PROTEINS” (Talus Bioscience, Inc., priority 2022, published 2025)

How the values were obtained:
Assay type in all cases: cell-based
CTCF = target: T1, CTCF (Homo sapiens, UniProt P49711); assay: Movement of transcription factor between ChESS fractions after NM-IAA treatment; conditions: ChESS fractionation after NM-IAA treatment
T1 construct: endogenous in cells; host or cells: THP-1
T1 sequence (P49711 1-727): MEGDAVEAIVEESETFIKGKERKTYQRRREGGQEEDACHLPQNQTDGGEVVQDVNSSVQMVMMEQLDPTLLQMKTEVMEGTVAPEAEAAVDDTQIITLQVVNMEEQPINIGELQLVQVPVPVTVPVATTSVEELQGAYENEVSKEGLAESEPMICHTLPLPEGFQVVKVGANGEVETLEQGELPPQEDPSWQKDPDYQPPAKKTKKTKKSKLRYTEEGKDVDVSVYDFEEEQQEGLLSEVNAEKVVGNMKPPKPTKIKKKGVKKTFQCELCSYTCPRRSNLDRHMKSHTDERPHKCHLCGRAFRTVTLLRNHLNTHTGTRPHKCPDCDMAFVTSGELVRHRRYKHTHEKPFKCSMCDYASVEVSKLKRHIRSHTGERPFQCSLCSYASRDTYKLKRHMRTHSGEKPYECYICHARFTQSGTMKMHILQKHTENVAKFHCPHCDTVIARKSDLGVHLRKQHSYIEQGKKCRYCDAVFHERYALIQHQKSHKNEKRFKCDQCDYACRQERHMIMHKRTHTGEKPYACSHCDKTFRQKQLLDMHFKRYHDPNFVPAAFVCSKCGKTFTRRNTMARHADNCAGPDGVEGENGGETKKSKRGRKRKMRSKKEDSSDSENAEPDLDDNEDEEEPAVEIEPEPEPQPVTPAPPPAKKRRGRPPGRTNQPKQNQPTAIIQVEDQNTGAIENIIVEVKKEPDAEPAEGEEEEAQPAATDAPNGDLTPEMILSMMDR
Experimental: Five million cells, from leukemia, myeloma, or other cancer cell cultures, were treated with 12.5 μM n-methyl iodoacetamide (NM-IAA) in triplicate for 4 hours. The cells were then washed with phosphate-buffered saline (PBS) and fractionated using chromatin enriching salt separation (ChESS). ChESS used four sequential buffer washes of increasing ionic strength to separate the cellular proteome into cytosolic-, nucleoplasm-, euchromatin-, and heterochromatin-enriched fractions, as outlined in FIG. 1. Each of the fractions was digested using trypsin and analyzed using a data-dependent acquisition (DDA) strategy on an Evosep One-ThermoFisher Exploris 480 orbitrap platform. The results were analyzed using the Comet search tool with the mass of the NM-IAA addition as a variable modification on cysteine residues, then filtered at a 1% false discovery rate with Peptide Prophet or mokapot. DDA results were quantified with FlashLFQ. Each sample was also acquired using a data independent acquisition (DIA) approach on the same mass spectrometer in order to accurately quantify the peptides and proteins in each sample. DIA samples were analyzed using EncyclopeDIA with a spectral library that was generated using the results from DDA analysis and Comet search results or using a predicted spectral library from Prosit. […]

[1] = target: T2, CCCTC-binding factor (CTCF) (Homo sapiens, UniProt P49711); assay: Reactive cysteine identification by ChESS fractionation and mass spectrometry in THP-1 cells; conditions: 12.5 μM, 4 hours, mass spectrometry
T2 construct: endogenous in cells; host or cells: THP-1
T2 sequence (P49711 1-727): T1 sequence (P49711 1-727)
Experimental: Five million cells, from leukemia, myeloma, or other cancer cell cultures, were treated with 12.5 μM n-methyl iodoacetamide (NM-IAA) in triplicate for 4 hours. The cells were then washed with phosphate-buffered saline (PBS) and fractionated using chromatin enriching salt separation (ChESS). ChESS used four sequential buffer washes of increasing ionic strength to separate the cellular proteome into cytosolic-, nucleoplasm-, euchromatin-, and heterochromatin-enriched fractions, as outlined in FIG. 1. Each of the fractions was digested using trypsin and analyzed using a data-dependent acquisition (DDA) strategy on an Evosep One-ThermoFisher Exploris 480 orbitrap platform. The results were analyzed using the Comet search tool with the mass of the NM-IAA addition as a variable modification on cysteine residues, then filtered at a 1% false discovery rate with Peptide Prophet or mokapot. DDA results were quantified with FlashLFQ. Each sample was also acquired using a data independent acquisition (DIA) approach on the same mass spectrometer in order to accurately quantify the peptides and proteins in each sample. DIA samples were analyzed using EncyclopeDIA with a spectral library that was generated using the results from DDA analysis and Comet search results or using a predicted spectral library from Prosit.
THP-1 acute monocytic leukemia cells were grown to 95% viability. […]

[2] = target: T3, poly(ADP-ribose) polymerase-1 (PARP1) (Homo sapiens, UniProt P09874); assay: Reactive cysteine identification with Biotin-IA in THP-1 cells (mass spectrum); conditions: 10 μM
T3 construct: endogenous in cells; host or cells: THP-1
T3 sequence (P09874 whole entry): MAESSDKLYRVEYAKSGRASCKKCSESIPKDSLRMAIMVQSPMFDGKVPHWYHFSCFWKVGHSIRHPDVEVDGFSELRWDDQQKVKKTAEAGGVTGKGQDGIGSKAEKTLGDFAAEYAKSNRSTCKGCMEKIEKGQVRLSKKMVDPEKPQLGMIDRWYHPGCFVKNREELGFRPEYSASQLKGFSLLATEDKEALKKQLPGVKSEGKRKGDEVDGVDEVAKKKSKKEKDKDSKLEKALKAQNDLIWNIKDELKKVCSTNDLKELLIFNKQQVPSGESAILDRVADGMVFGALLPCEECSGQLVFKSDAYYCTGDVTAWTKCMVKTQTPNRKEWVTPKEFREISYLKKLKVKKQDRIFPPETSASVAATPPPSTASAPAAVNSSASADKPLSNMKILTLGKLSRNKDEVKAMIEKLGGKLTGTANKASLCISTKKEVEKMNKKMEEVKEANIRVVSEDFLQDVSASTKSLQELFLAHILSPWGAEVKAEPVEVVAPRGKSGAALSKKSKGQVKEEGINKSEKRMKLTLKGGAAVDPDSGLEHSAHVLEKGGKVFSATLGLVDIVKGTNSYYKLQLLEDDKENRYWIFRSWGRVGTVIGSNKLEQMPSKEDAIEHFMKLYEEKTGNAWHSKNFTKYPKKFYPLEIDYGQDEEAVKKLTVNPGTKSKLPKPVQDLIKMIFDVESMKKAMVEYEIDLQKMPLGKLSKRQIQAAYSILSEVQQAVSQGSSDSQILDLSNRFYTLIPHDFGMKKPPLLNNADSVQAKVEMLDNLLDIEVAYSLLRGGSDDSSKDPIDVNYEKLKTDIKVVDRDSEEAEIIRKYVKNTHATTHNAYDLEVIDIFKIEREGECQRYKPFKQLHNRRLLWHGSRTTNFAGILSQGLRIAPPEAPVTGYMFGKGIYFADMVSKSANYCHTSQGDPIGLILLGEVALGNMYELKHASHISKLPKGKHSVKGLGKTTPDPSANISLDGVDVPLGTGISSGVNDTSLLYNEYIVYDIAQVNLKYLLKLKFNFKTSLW
Experimental: The mass shift associated with NM-IAA is 71.03 Dalton (Da). […] THP-1 cells were treated with 10 μM biotin polyethyleneoxide iodoacetamide (Biotin-IA). Biotin-IA reacted with a cysteine in the peptide SDAYYCTGDVTAWTK (SEQ ID NO: 2) from the poly(ADP-ribose) polymerase-1 (PARP1) protein.

modification of the cysteine in CTCF peptide YHDPNFVPAAFVCSK (SEQ ID NO: 1) [1] | Compound | CTCF localisation in ChESS fractions after NM-IAA modification (CTCF) | reaction with a cysteine in PARP1 peptide SDAYYCTGDVTAWTK (SEQ ID NO: 2) [2]
modified | CNC(=O)CI [NM-IAA, n-methyl iodoacetamide] | ejected from heterochromatin and observed in the nucleoplasm fraction | –
– | biotin polyethyleneoxide iodoacetamide [Biotin-IA] | – | reacted
